From patent publication US20250066724A1, “GENERATION OF HUMAN SPINAL CORD NEURAL STEM CELLS” (THE REGENTS OF THE UNIVERSITY OF CALIFORNIA, priority 2023, published 2025)

What was measured:
[1] = tested on: neurons differentiated from H9-derived spinal cord NSCs; test: Whole-cell patch clamp electrophysiology of neurons differentiated from H9-derived spinal cord NSCs; conditions: spontaneous postsynaptic currents, all three drugs
SOX1+/SOX2+/Nestin+ NSCs = test: Long-term maintenance culture of spinal cord NSCs; format: cell-based, human; conditions: due to differentiation, data not shown

Compound | spiking of neuron after glutamate receptor and GABA-A receptor antagonists [1] | culture maintenance over time on omission of the component from maintenance medium (SOX1+/SOX2+/Nestin+ NSCs)
N[C@@H](CCCP(=O)(O)O)C(=O)O [APV] | no change in spiking | –
Cc1c[nH]c(-c2cnc(NCCNc3ccc(C#N)cn3)nc2-c2ccc(Cl)cc2Cl)n1 [CHIR, CHIR99021] | – | failure to sustain cultures
O=[N+]([O-])c1cc2nc(O)c(O)nc2cc1[N+](=O)[O-] [DNQX] | no change in spiking | –
CNC1CCC(N(Cc2cccc(-c3ccncc3)c2)C(=O)c2sc3c(F)ccc(F)c3c2Cl)CC1 (centres unmarked) [Hh-Ag1.5] | – | failure to sustain cultures
picrotoxin | no change in spiking | –
